The results in this text go back to ChEMBL document CHEMBL3232896, “Biological evaluation of new mimetics of annonaceous acetogenins: alteration of right scaffold by click linkage with aromatic functionalities” (Eur J Med Chem, 2014).

Some results are limits rather than exact numbers.

The nature of data set [1]: Antiproliferative activity against human SGC7901 cells assessed as growth inhibition after 72 hrs by MTT assay. The conditions noted are these: SGC-7901, 72 h. The data set is classed as functional. (Tetrazolium assays rely on reduction of a dye to a coloured formazan, in cell work by metabolically active cells.)
Data set [2] is described as follows: Antiproliferative activity against human HLF assessed as growth inhibition after 72 hrs by MTT assay. The conditions noted are these: HLF cells.
Data set [3] relates to HCT-116. Briefly: Antiproliferative activity against human HCT116 cells assessed as growth inhibition after 72 hrs by MTT assay. The data set is classed as functional. Conditions: HCT-116, 72 h.

Consider `CCCCCCCCCC[C@H](O)COCCOC[C@@H](O)CCCCCCCCCCCCC1=C[C@H](C)OC1=O`, for which the GI50 (as a rule, the concentration giving 50% growth inhibition) in data set [1] amounted to 0.076 µM; in data set [3], 0.181 µM. Further, the GI50 at 72 h in data set [2] is 27.8 µM.
The matching figures for `O[C@H](COCCOC[C@@H](O)Cc1cn(-c2ccc3c(c2)OCCO3)nn1)Cc1ccc(-c2ccccc2)cc1`: 6.4 µM, 16.5 µM and 5.2 µM.
The matching figures for `O[C@H](COCCOC[C@@H](O)Cc1cn(-c2cncnc2)nn1)Cc1ccc(-c2ccccc2)cc1`: above 100 µM, above 100 µM and above 100 µM.
For `O[C@H](COCCOC[C@@H](O)Cc1cn(-c2cccs2)nn1)Cc1ccc(-c2ccccc2)cc1`, in that order: 33.4 µM, 33.4 µM and above 100 µM.
For `O[C@H](COCCOC[C@@H](O)Cc1cn(-c2cncc3ccccc23)nn1)Cc1ccc(-c2ccccc2)cc1`, the GI50 came out at 29.3 µM in data set [1] and 17.8 µM in data set [3]. For the same compound, the GI50 at 72 h in data set [2] worked out at 10.8 µM.
For `O[C@H](COCCOC[C@@H](O)Cc1cn(-c2cccnc2)nn1)Cc1ccc(-c2ccccc2)cc1`, in that order: 29.8 µM, 46.8 µM and above 100 µM.
The matching figures for `O[C@H](COCCOC[C@@H](O)Cc1cn(-c2ccc(N3CCOCC3)cc2)nn1)Cc1ccc(-c2ccccc2)cc1`: 20.7 µM, 8.3 µM and above 100 µM.
Consider `O=C1COc2ccc(-n3cc(C[C@H](O)COCCOC[C@@H](O)Cc4ccc(-c5ccccc5)cc4)nn3)cc2N1`, for which the GI50 came out at 15.2 µM in data set [1] and 42.5 µM in data set [3]. In data set [2], the GI50 at 72 h is above 100 µM.
The matching figures for `O[C@H](COCCOC[C@@H](O)Cc1cn(-c2ccc3[nH]ccc3c2)nn1)Cc1ccc(-c2ccccc2)cc1`: 45.6 µM, 15.5 µM and above 100 µM.
The matching figures for `O=c1[nH]c2ccc(-n3cc(C[C@H](O)COCCOC[C@@H](O)Cc4ccc(-c5ccccc5)cc4)nn3)cc2s1`: 10.5 µM, 9.2 µM and 47.7 µM.
The matching figures for `O[C@H](COCCOC[C@@H](O)Cc1cn(Cc2ccc(Oc3ccccc3)cc2)nn1)Cc1ccc(-c2ccccc2)cc1`: 4.5 µM, 3.4 µM and 22.8 µM.
For `N#Cc1ccc(Cn2cc(C[C@H](O)COCCOC[C@@H](O)Cc3ccc(-c4ccccc4)cc3)nn2)cc1`, the GI50 in data set [1] worked out at 7.7 µM; in data set [3] it was 8.8 µM. The GI50 at 72 h in data set [2] stood at 36.6 µM.
For `O[C@H](COCCOC[C@@H](O)Cc1cn(Cc2ccc3ccccc3c2)nn1)Cc1ccc(-c2ccccc2)cc1`, in that order: 12.1 µM, 8.6 µM and 19.8 µM.
For the compound `O[C@H](COCCOC[C@@H](O)Cc1cn(Cc2cccc(-c3ccccc3)c2)nn1)Cc1ccc(-c2ccccc2)cc1`, the GI50 was found to be 10.6 µM in data set [1] and 7.2 µM in data set [3]. For the same compound, the 50% growth inhibitory concentration (GI50) at 72 h in data set [2] was above 100 µM.
Regarding `O[C@H](COCCOC[C@@H](O)Cc1cn(Cc2ccc(C(F)(F)F)cc2)nn1)Cc1ccc(-c2ccccc2)cc1`, the GI50 in data set [1] was 8.7 µM; in data set [3], 2.5 µM. The GI50 at 72 h in data set [2] was 29.8 µM.
The matching figures for `O[C@H](COCCOC[C@@H](O)Cc1c[nH]nn1)Cc1ccc(-c2ccccc2)cc1`: above 100 µM, above 100 µM and above 100 µM.
The matching figures for `COC1=C(OC)C(=O)C(CCCCCCCCCCn2cc(C[C@H](O)COCCOC[C@@H](O)Cc3ccc(-c4ccccc4)cc3)nn2)=C(C)C1=O`: 3.8 µM, 0.6 µM and 18.3 µM.
For `COC1=C(C)C(=O)C(CCCCCCCCCCn2cc(C[C@H](O)COCCOC[C@@H](O)Cc3ccc(-c4ccccc4)cc3)nn2)=C(C)C1=O`, in that order: 0.505 µM, 4 µM and 35.1 µM.
Consider `CC1=C(C)C(=O)C(CCCCCCCCCCn2cc(C[C@H](O)COCCOC[C@@H](O)Cc3ccc(-c4ccccc4)cc3)nn2)=C(C)C1=O`, for which the GI50 in data set [1] came to 0.35 µM; in data set [3] it was 0.9 µM. In addition, in data set [2], the GI50 at 72 h was above 25 µM.
For `CC1=C(CCCCCCCCCCn2cc(C[C@H](O)COCCOC[C@@H](O)Cc3ccc(-c4ccccc4)cc3)nn2)C(=O)c2ccccc2C1=O`, in that order: 0.39 µM, 3 µM and 22.6 µM.
`COC1=C(OC)C(=O)C(CCCCCCn2cc(C[C@H](O)COCCOC[C@@H](O)Cc3ccc(-c4ccccc4)cc3)nn2)=C(C)C1=O`: the GI50 was 16.6 µM in data set [1] and 5 µM in data set [3]. Besides, in data set [2], the GI50 at 72 h was above 50 µM.
The matching figures for `COC1=C(OC)C(=O)C(CCCCCCCCCCCCCCCn2cc(C[C@H](O)COCCOC[C@@H](O)Cc3ccc(-c4ccccc4)cc3)nn2)=C(C)C1=O`: 2.49 µM, 1.5 µM and above 50 µM.
On to `COc1cccc2c1C(=O)c1c(O)c3c(c(O)c1C2=O)C[C@@](O)(C(=O)CO)C[C@@H]3O[C@H]1C[C@H](N)[C@H](O)[C@H](C)O1` [DOXORUBICIN], for which the GI50 in data set [1] worked out at 0.55 µM; in data set [3], 0.15 µM. Besides, the concentration for 50% growth inhibition (GI50) at 72 h in data set [2] amounted to 0.33 µM.
